Experiment [1] concerns the target Rheb (Homo sapiens (Human), UniProt Q15382). The experiment can be described thus: Affinity Selection Mass Spectrometry (ASMS). In kind it is binding. The following applies: affinity (R3/R0) in Affinity Selection Mass Spectrometry assay. The method, boiled down:
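Human Rheb (60 μM) with GDP (180 μM) and each compound at 2 μM, protein-plus versus protein-minus, incubated 30 min at room temperature, then washed by 10 kDa ultrafiltration. Retained ligand was released with MeCN and detected by UPLC-Q-TOF MS.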

The target of experiment [2] is HA-GST-Rheb (GTP-γ-S loaded) activating mTORC1 (Homo sapiens (Human), UniProt Q15382). Kind of experiment: Rheb-dependent in vitro kinase assay (Rheb-IVK; LanthaScreen or Western readout). The format is biochemical. On the technique in general: In TR-FRET formats the signal depends on donor and acceptor labels being close together.
Sequence of HA-GST-Rheb (GTP-γ-S loaded) activating mTORC1 (Q15382 1-181): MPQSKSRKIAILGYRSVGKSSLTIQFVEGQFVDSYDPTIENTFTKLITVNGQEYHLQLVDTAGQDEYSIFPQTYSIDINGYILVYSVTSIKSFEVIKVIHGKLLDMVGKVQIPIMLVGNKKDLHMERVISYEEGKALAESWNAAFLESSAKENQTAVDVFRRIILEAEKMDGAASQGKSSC
Setting [3] is: Rheb-dependent in vitro kinase assay, read-out: IVK IC50.

Data on 39 molecules can be found in patent US11339144B2 (Navitor Pharmaceuticals, Inc., priority 2017, dated 2022).

Molecules are shown by their SMILES. Like-named read-outs stand apart in the source and are kept apart here.

Sequence of Rheb (Q15382 1-169 limits assumed): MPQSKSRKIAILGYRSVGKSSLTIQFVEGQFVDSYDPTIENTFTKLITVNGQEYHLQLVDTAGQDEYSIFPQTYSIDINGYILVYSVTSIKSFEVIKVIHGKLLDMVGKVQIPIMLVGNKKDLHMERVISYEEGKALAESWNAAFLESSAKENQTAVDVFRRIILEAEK

Turning to `OCc1cc2c(Oc3ccc(Cl)cc3)cccc2[nH]1` [I-263, (4-(4-chlorophenoxy)-1H-indol-2-yl)methanol], in experiment [1], the “ASMS (R3/R0)” value is on record as “C (an affinity (R3/R0)<20%)”. In experiment [2] (setting [3]), the IC50 (usually the concentration needed to halve the response being measured) lay in the range of 10 to 100 µM.
The corresponding values for `Cn1ccc2c(Oc3ccccc3F)cccc21` [I-267] are “C (an affinity (R3/R0)<20%)” and over 3 µM.
On to `Cn1c(CO)cc2c(Oc3cccc(Cl)c3)cccc21` [I-271], for which, in experiment [1], the “ASMS (R3/R0)” value is listed as “C (an affinity (R3/R0)<20%)”. The IC50 in experiment [2] (setting [3]) is over 3 µM.
On the same counts, the results for `OCc1cc2c(Oc3cccc(Cl)c3)cccc2[nH]1` [I-275, (4-(3-chlorophenoxy)-1H-indol-2-yl)methanol] are “C (an affinity (R3/R0)<20%)” and 100 to 300 µM.
On the same counts, the results for `Fc1cccc(Oc2cccc3[nH]ccc23)c1` [I-282, 4-(3-fluorophenoxy)-1H-indole] are “C (an affinity (R3/R0)<20%)” and 100 to 300 µM.
On the same counts, the results for `Clc1ccc(Oc2cccc3[nH]ccc23)cc1` [I-283, 4-(4-chlorophenoxy)-1H-indole] are “C (an affinity (R3/R0)<20%)” and 100 to 300 µM.
As to `Fc1ccccc1Oc1cccc2[nH]ccc12` [I-288, 4-(2-fluorophenoxy)-1H-indole], in experiment [1], the “ASMS (R3/R0)” value is “C (an affinity (R3/R0)<20%)”. The IC50 in experiment [2] (setting [3]) lay within 100 to 300 µM.
Regarding `OCc1cc2c(Br)cc(Oc3ccccc3)cc2[nH]1` [I-290, (4-Bromo-6-phenoxy-1H-indol-2-yl)methanol], the “ASMS (R3/R0)” value in experiment [1] is “B (an affinity (R3/R0) between 100% and 20%)”. Also, the IC50 in experiment [2] (setting [3]) lay in the range of 10 to 100 µM.
`OCc1cc2c(Oc3ccccc3)cc(Cl)cc2[nH]1` [I-291, (6-Chloro-4-phenoxy-1H-indol-2-yl)methanol]: the “ASMS (R3/R0)” value in experiment [1] is given as “C (an affinity (R3/R0)<20%)”. The IC50 in experiment [2] (setting [3]) was in the range of 10 to 100 µM.
Take `OCc1cc2c(Oc3ccccc3)c(Cl)ccc2[nH]1` [I-293, (5-chloro-4-phenoxy-1H-indol-2-yl)methanol]: the “ASMS (R3/R0)” value in experiment [1] is “C (an affinity (R3/R0)<20%)”. In addition, the IC50 was about 83.8 µM in experiment [2] (LanthaScreen variation, Terbium labeled T46p4E-BP1 specific antibody, read-out: IC50 in the Rheb-IVK) and 100 to 300 µM in experiment [2] (setting [3]). Moreover, in experiment [2] (Western blot variation, anti 4E-BP1 and anti T37/46p4E-BP1), the “inhibition of mTORC1 activity in the Rheb-IVK” value was “capable of inhibiting mTORC1 activity”.
`Cn1ccc2c(OC3CCNCC3)cccc21` [I-295]: the “ASMS (R3/R0)” value in experiment [1] is “C (an affinity (R3/R0)<20%)”. For the same molecule, in experiment [2] (setting [3]), the IC50 was over 100 µM.
On the same counts, the results for `c1ccc(Oc2cccc3[nH]ccc23)cc1` [I-296, 4-phenoxy-1H-indole] are “C (an affinity (R3/R0)<20%)” and 100 to 300 µM.
The corresponding values for `Cn1ccc2c(Nc3ccccc3)cccc21` [I-299] are “C (an affinity (R3/R0)<20%)” and over 100 µM.
As for `OCc1nc2cc(OCc3ccc(Oc4ccccc4)cc3)c(Cl)c(Cl)c2[nH]1` [I-320, [6,7-dichloro-5-[(4-phenoxyphenyl)methoxy]-1H-benzimidazol-2-yl]methanol], the “ASMS (R3/R0)” value in experiment [1] was “B (an affinity (R3/R0) between 100% and 20%)”. Further, the IC50 in experiment [2] (setting [3]) was in the range of 10 to 100 µM.
Consider `CN1CCN(C(=O)c2cc3nc(-c4ccnc5[nH]ccc45)[nH]c3c(Cl)c2Cl)CC1` [I-321], for which, in experiment [1], the “ASMS (R3/R0)” value is recorded as “C (an affinity (R3/R0)<20%)”. For the same molecule, the IC50 in experiment [2] (setting [3]) is over 100 µM.
For `O=C(O)Cn1c(-c2ccnc3[nH]ccc23)nc2c(Sc3ccc(Cl)cc3)c(Cl)ccc21` [I-322], in experiment [1], the “ASMS (R3/R0)” value is “C (an affinity (R3/R0)<20%)”. In experiment [2] (setting [3]), the IC50 was over 100 µM.
Consider `O[C@@H]1CCC[C@@H](COc2c(Cl)c(Cl)cc3[nH]c(-c4ccncc4)nc23)C1` [I-323], for which the “ASMS (R3/R0)” value in experiment [1] is “B (an affinity (R3/R0) between 100% and 20%)”. In addition, the IC50 in experiment [2] (setting [3]) is over 3 µM.
For `O[C@@H]1CCC[C@H](COc2c(Cl)c(Cl)cc3[nH]c(-c4ccncc4)nc23)C1` [I-324, (1R,3S)-3-((5,6-dichloro-2-(pyridin-4-yl)-1H-benzo[d]imidazol-4-yloxy)methyl)cyclohexanol], the “ASMS (R3/R0)” value in experiment [1] is “B (an affinity (R3/R0) between 100% and 20%)”. In addition, the IC50 in experiment [2] (setting [3]) is over 3 µM.
Take `OCC(O)c1nc2c(OCC3CCCCC3)c(Cl)c(Cl)cc2[nH]1` (centres unmarked) [I-325, 1-(5,6-dichloro-4-(cyclohexylmethoxy)-1H-benzo[d]imidazol-2-yl)ethane-1,2-diol]: the “ASMS (R3/R0)” value in experiment [1] was “B (an affinity (R3/R0) between 100% and 20%)”. In experiment [2] (setting [3]), the IC50 fell in the range of 10 to 100 µM.
For the molecule `Clc1ccc(Sc2cc(Cl)cc3[nH]c(-c4ccnc5[nH]ccc45)nc23)cc1` [I-326, 6-chloro-4-(4-chlorophenylthio)-2-(1H-pyrrolo[2,3-b]pyridin-4-yl)-1H-benzo[d]imidazole], the “ASMS (R3/R0)” value in experiment [1] was “B (an affinity (R3/R0) between 100% and 20%)”. In addition, in experiment [2] (setting [3]), the IC50 lay in the range of 10 to 100 µM.
In the case of `O=C(O)c1cc2nc(-c3ccnc4[nH]ccc34)[nH]c2c(Cl)c1Cl` [I-327], the “ASMS (R3/R0)” value in experiment [1] is “C (an affinity (R3/R0)<20%)”. Further, in experiment [2] (setting [3]), the IC50 is over 100 µM.
Turning to `COc1ccc(COc2cc3nc(CO)[nH]c3c(Cl)c2Cl)cc1` [I-328], the “ASMS (R3/R0)” value in experiment [1] was “B (an affinity (R3/R0) between 100% and 20%)”. Also, in experiment [2] (setting [3]), the IC50 is over 100 µM.
With `O=[N+]([O-])c1ccc(COc2cc3nc(CO)[nH]c3c(Cl)c2Cl)cc1` [I-329, (6,7-dichloro-5-(4-nitrobenzyloxy)-1H-benzo[d]imidazol-2-yl)methanol], in experiment [1], the “ASMS (R3/R0)” value is “A (an affinity (R3/R0)>100%)”. In addition, the IC50 in experiment [2] (setting [3]) is 10 to 100 µM.
In the case of `O=C(O)c1ccc(CCn2c(-c3ccnc4[nH]ccc34)nc3cc(Cl)c(Cl)cc32)cc1` [I-331, 4-(2-(5,6-dichloro-2-(1H-pyrrolo[2,3-b]pyridin-4-yl)-1H-benzo[d]imidazol-1-yl)ethyl)benzoic acid], in experiment [1], the “ASMS (R3/R0)” value was “B (an affinity (R3/R0) between 100% and 20%)”. Also, the IC50 in experiment [2] (setting [3]) lay within 10 to 100 µM.
As to `CN1CCN(C(=O)Cc2nc3cc(Cl)c(OCc4ccc(Cl)cc4)cc3[nH]2)CC1` [I-332, 2-[5-chloro-6-[(4-chlorophenyl)methoxy]-1H-benzimidazol-2-yl]-1-(4-methylpiperazin-1-yl)ethanone], the “ASMS (R3/R0)” value in experiment [1] is given as “A (an affinity (R3/R0)>100%)”. In addition, the IC50 in experiment [2] (setting [3]) lay in the range of 10 to 100 µM.
The corresponding values for `O=C(O)c1nc2c(OCc3ccc(Cl)cc3)c(Cl)c(Cl)cc2[nH]1` [I-333] are “A (an affinity (R3/R0)>100%)” and 10 to 100 µM.
On to `O=C(O)Cn1c(-c2c[nH]c3ncccc23)nc2cc(Cl)c(Cl)cc21` [I-334, 2-(5,6-dichloro-2-(1H-pyrrolo[2,3-b]pyridin-3-yl)-1H-benzo[d]imidazol-1-yl)acetic acid], for which the “ASMS (R3/R0)” value in experiment [1] was “B (an affinity (R3/R0) between 100% and 20%)”. The IC50 in experiment [2] (setting [3]) lay within 10 to 100 µM.
For the molecule `O=C(O)c1ccc(CCn2c(-c3c[nH]c4ncccc34)nc3cc(Cl)c(Cl)cc32)cc1` [I-335, 4-(2-(5,6-dichloro-2-(1H-pyrrolo[2,3-b]pyridin-3-yl)-1H-benzo[d]imidazol-1-yl)ethyl)benzoic acid], the “ASMS (R3/R0)” value in experiment [1] is “B (an affinity (R3/R0) between 100% and 20%)”. In addition, in experiment [2] (setting [3]), the IC50 was 100 to 300 µM.
Regarding `CN1CCC[C@H]1CNC(=O)c1ccc(-c2nc3cc(Cl)c(Cl)cc3[nH]2)cc1` [I-336], the “ASMS (R3/R0)” value in experiment [1] was “B (an affinity (R3/R0) between 100% and 20%)”. The IC50 in experiment [2] (setting [3]) was over 100 µM.
Regarding `CN1CCC(CNC(=O)c2nc3cc(OCc4ccc(Cl)cc4)c(Cl)c(Cl)c3[nH]2)CC1` [I-337, 6,7-dichloro-5-(4-chlorobenzyloxy)-N-((1-methylpiperidin-4-yl)methyl)-1H-benzo[d]imidazole-2-carboxamide], the “ASMS (R3/R0)” value in experiment [1] is “B (an affinity (R3/R0) between 100% and 20%)”. In addition, the IC50 in experiment [2] (setting [3]) was over 3 µM.
In the case of `O=C(O)c1nc2cc(OCc3ccc(Cl)cc3)c(Cl)c(Cl)c2[nH]1` [I-338, 6,7-dichloro-5-(4-chlorobenzyloxy)-1H-benzo[d]imidazole-2-carboxylic acid], the “ASMS (R3/R0)” value in experiment [1] was “B (an affinity (R3/R0) between 100% and 20%)”. Also, the IC50 in experiment [2] (setting [3]) is over 3 µM.
Take `Clc1ccc(Sc2cc(Cl)cc3[nH]c(-c4c[nH]c5ncccc45)nc23)cc1` [I-339, 6-chloro-4-(4-chlorophenylthio)-2-(1H-pyrrolo[2,3-b]pyridin-3-yl)-1H-benzo[d]imidazole]: the “ASMS (R3/R0)” value in experiment [1] was “B (an affinity (R3/R0) between 100% and 20%)”. In experiment [2] (setting [3]), the IC50 is over 3 µM.
For the molecule `Cc1nc2c(OCc3ccc(Cl)cc3)c(Cl)c(Cl)cc2[nH]1` [I-340], the “ASMS (R3/R0)” value in experiment [1] is “B (an affinity (R3/R0) between 100% and 20%)”. Moreover, the IC50 in experiment [2] (setting [3]) was over 100 µM.
`CN1CCC[C@@H]1CNC(=O)c1ccc(-c2nc3cc(Cl)c(Cl)cc3[nH]2)cc1` [I-341]: the “ASMS (R3/R0)” value in experiment [1] was “B (an affinity (R3/R0) between 100% and 20%)”. The IC50 in experiment [2] (setting [3]) is over 100 µM.
Regarding `O=C(O)c1nc2c(OCC3CCCCC3)c(Cl)c(Cl)cc2[nH]1` [I-342, 5,6-dichloro-4-(cyclohexylmethoxy)-1H-benzo[d]imidazole-2-carboxylic acid], in experiment [1], the “ASMS (R3/R0)” value is “B (an affinity (R3/R0) between 100% and 20%)”. Further, in experiment [2] (setting [3]), the IC50 was 10 to 100 µM.
For the molecule `O=C(O)c1nc2cc(OCc3ccc(Cl)cc3)c(Cl)cc2[nH]1` [I-343, 6-chloro-5-(4-chlorobenzyloxy)-1H-benzo[d]imidazole-2-carboxylic acid], in experiment [1], the “ASMS (R3/R0)” value is given as “A (an affinity (R3/R0)>100%)”. Also, in experiment [2] (setting [3]), the IC50 fell in the range of 10 to 100 µM.
On the same counts, the results for `Clc1cc2nc(-c3ccc(-c4nn[nH]n4)cc3)[nH]c2cc1Cl` [I-344] are “A (an affinity (R3/R0)>100%)” and over 100 µM.
`C=Cc1nc2c(OCC3CCCCC3)c(Cl)c(Cl)cc2[nH]1` [I-345]: the “ASMS (R3/R0)” value in experiment [1] is “B (an affinity (R3/R0) between 100% and 20%)”. For the same molecule, the IC50 in experiment [2] (setting [3]) is over 100 µM.
As for `Clc1cc2nc(-c3ccnc(N4CCNCC4)c3)[nH]c2cc1Cl` [I-346], the “ASMS (R3/R0)” value in experiment [1] is recorded as “A (an affinity (R3/R0)>100%)”. The IC50 in experiment [2] (setting [3]) was over 100 µM.
